Series [1] deals with Cerebral cortical neuronal cells from an 18-day-old rat embryo. As to the kind of experiment: Test on neurotrophic activity (living cells counted by fluorescein diacetate fluorescence, with or without hypoxic load). The format is cell-based. On the procedure:
The neurotrophic activity was determined by the following method. Each compound was dissolved in DMSO to adjust the concentration in the range of 2 mg/ml to 10 mg/ml. Cerebral cortical neuronal cells from an 18-day-old rat embryo […] After 24 hours of incubation, the culture medium was removed and a 0.5 ml/well aliquot of a serum-free fresh DF medium containing the respective compounds having various concentrations, 5 µg/ml of transferrin, 5 µg/ml of insulin and 20 pmoles/ml of progesterone was supplemented to the system. For the purpose of comparison, the medium containing only DMSO was added was also prepared. At this stage, the two same plates were used. After 72 hours of incubation in various medium, hypoxia was loaded on one plate by reducing the concentration of oxygen to the minimum concentration of 1% using a N₂-O₂-CO₂ incubator (manufactured by Tabai, Model BNP-100) and culturing for 4 hours under the conditions. Another plate was cultured in an atmosphere of 5% CO₂ and 95% air, without hypoxic load. After the incubation was continued for further 48 hours, living cells were counted. The culture medium was removed and fluorescein diacetate (FDA) reagent was reacted. After washing with phosphate buffer, pH 7.4, the fluorescent intensity (E x 485/Em 530) was measured by CytoFlour^TM 2300, manufactured by Millipore.

Series [2] deals with Astroglial cells derived from the mouse forebrain. As to the kind of experiment: Synthesis-stimulating activity on NGF (NGF level in culture medium by enzyme immunoassay). The series is classed as cell-based. To be noted: for fold induction at 2 µg/mL / fold induction at 50 µg/mL: read-out: Synthesis-Stimulating Activity on NGF. The method, then:
The activity of accelerating secretion of NGF was evaluated by the following method.
Each compound shown in Table 1 was dissolved in dimethylsulfoxide (DMSO) to adjust the concentration in the range of 2 mg/ml to 10 mg/ml.
Astroglial cells derived from the mouse forebrain (cells that synthesize and secrete NGF)
Astroglial cells obtained from the mouse forebrain were cultured into 8 x 10⁵ cells/ml in Dulbecco's modified Eagle's medium obtained from Gibco, glucose-rich, containing 20% fetal calf serum, 100 units/ml of penicillin and 100 µg/ml of streptomycin. A 0.1 ml/well aliquot was inoculated on a 96-well plate obtained from Falcon and having an area of 0.32 cm² per well and cultured at 37°C in an atmosphere of 5% CO₂. The culture medium was removed 72 hours later and instead, a 0.1 ml/well aliquot of fresh Dulbecco's modified Eagle's medium containing 0.5% bovine albumin powders obtained from Armour, 100 units/ml of penicillin and 100 µg/ml of streptomycin was supplemented to the system followed by culturing at 37°C in 5% CO₂. The above medium containing the compound each having various concentrations was exchanged 72 hours later. For the purpose of comparison, the medium which contains only DMSO was also prepared (control).
The synthesis-stimulating activity on NGF by the compound of the present invention is shown in terms of a ratio when the NGF level in the control containing only DMSO was made 1.0.

For series [3], the system named is both common carotid artery-occlusion model Mongolian gerbils. Put plainly: Test on delayed neuronal death induced by cerebral ischemia (3 min occlusion of both common carotid arteries, histology of hippocampus after 7 days). The series is classed as in vivo. The settings on record: for Incidence Frequency of Neuronal Damage -: score 0 (-), normal neurons; for Incidence Frequency of Neuronal Damage +: score 1 (+), a few neurons damaged; for Incidence Frequency of Neuronal Damage ++: score 2 (++), many neurons damaged; for Incidence Frequency of Neuronal Damage +++: score 3 (+++), majority of neurons damaged. The method, then:
Neuronal damages induced by cerebral ischemia was evaluated in the both common carotid artery-occlusion model Mongolian gerbils. Male Monglian gerbils, supplied by Shin Nihon Dobutsu Co., Ltd., Saitama, Japan and weighing 60 to 90 g. The gerbils were anesthetized lightly with ether and placed in the supine position. After local infiltration of xylocaine, both common carotid arteries were exposed through a ventral midline incision. The arteries were then clamped with aneurysm clips for 3 minutes. Thereafter the clips were removed and the skin was sutured. Sham operated animals were treated in the same manner, except that clamping was not done. The animals were anesthetized with ether 7 days after the bilateral common carotid arteries had been occluded for 3 minutes, and the brains were perfused with a 10% buffered formalin solution given through the left cardiac ventricle. The hippocampal region was cut coronally into 3- to 4-mm thick slices, embedded in paraffin and processed using the step section technique. The preparations were stained with hematoxylin and eosin. Ischemic neuronal damage was graded on 4 levels from scores 0 to 3: score 0 (-), normal neurons; score 1 (+), a few neurons damaged (as few as one neuron damaged); score 2 (++), many neurons damaged; and score 3 (+++), majority of neurons damaged. Compounds to be tested were suspended in gum arabic or dissolved in physiological saline, which was intraperitoneally given at determined times in doses of 10 mg/kg to 100 mg/kg, before and after the induced ischemia.

The mark [4] stands for this setting: no hypoxic load, ratio of fluorescent intensity to DMSO control = 1.0, read-out: Neurotrophic Activity No Hypoxic Load.
Where [5] appears, read: 4 h, hypoxic load (1% oxygen, 4 hours), ratio of fluorescent intensity to DMSO control = 1.0, read-out: Neurotrophic Activity Hypoxic Load.
Setting [6] is: Mus musculus, 24 h, ratio to DMSO control = 1.0.
[7] abbreviates: Mus musculus, 24 h, 100 µg/ml, ratio to DMSO control = 1.0.
The mark [8] stands for this setting: dose 100 mg/kg, intraperitoneally, before 30 mins.
The mark [9] stands for this setting: dose 100 mg/kg, intraperitoneally, immediately after ischemia.
The mark [10] stands for this setting: dose 10, intraperitoneally, 30 mins after ischemia.
The mark [11] stands for this setting: dose 10, intraperitoneally, 1 hour after ischemia.
Where [12] appears, read: dose 10, intraperitoneally, immediately after ischemia.
The mark [13] stands for this setting: Mus musculus, 24 h, 2 µg/ml, ratio to DMSO control = 1.0, 24 hours.

Like-named read-outs stand apart in the source and are kept apart here.

In the case of `CCCCCCCCCCCCCCCCC(CCCCCCCCCCCCCCCC)c1cc[n+](Cc2ccc(-c3cc(-c4ccccn4)nc(-c4ccccn4)c3)cc2)cc1.[Br-]` [Compound 29, 4-(1-Hexadecylheptadecyl)-1-[4-(2,2':6',2''-terpyridin-4'-yl)phenylmethyl]pyridinium bromide], in series [1] (setting [4]), the viability at 2 µg/mL was found to be 610% and the viability at 10 µg/mL amounted to 570%. Moreover, in series [1] (setting [5]), the viability at 2 µg/mL turned out to be 500% and the viability at 10 µg/mL is 300%. For the same compound, in series [2] (Mus musculus, 24 h, 3 µg/ml, ratio to DMSO control = 1.0), the fold induction at 3 µg/mL was 1. In series [2] (setting [6]), the fold induction at 10 µg/mL stood at 2 and the fold induction at 30 µg/mL stood at 7.6. For the same compound, the fold induction at 100 µg/mL in series [2] (setting [7]) was 13. Also, in series [3] (setting [8]), the Incidence Frequency of Neuronal Damage - was determined as 42.9%, the Incidence Frequency of Neuronal Damage + worked out at 14.3%, the Incidence Frequency of Neuronal Damage ++ was found to be 14.3% and the Incidence Frequency of Neuronal Damage +++ amounted to 28.6%.
Consider `Cc1ccc(-c2cc(-c3ccccn3)nc(-c3ccccn3)c2)cc1` [Compound 5, 4'-(4-Methylphenyl)-2,2':6',2''-terpyridine], for which, in series [2] (Mus musculus, 24 h, 20 µg/ml, ratio to DMSO control = 1.0), the fold induction at 20 µg/mL turned out to be 10.1. Besides, the fold induction at 100 µg/mL in series [2] (setting [7]) stood at 9.8. In series [3] (setting [9]), the Incidence Frequency of Neuronal Damage - turned out to be 25%, the Incidence Frequency of Neuronal Damage + came out at 50%, the Incidence Frequency of Neuronal Damage ++ is 0% and the Incidence Frequency of Neuronal Damage +++ turned out to be 25%.
`Cc1ccc(-c2cc(-c3ccccn3)nc(-c3ccccn3)c2)cc1.Cl.Cl.Cl` [Compound 6, 4'-(4-Methylphenyl)-2,2':6',2''-terpyridin trihydrochloride]: the “Synthesis-Stimulating Activity on NGF” value in series [2] (100 µg/ml, ratio to DMSO control = 1.0, 24 hours) was 5.0. Also, in series [2] (setting [6]), the fold induction at 10 µg/mL worked out at 2 and the fold induction at 30 µg/mL amounted to 3.3. The “damages of the hippocampal CAl neurons” value in series [3] (intraperitoneally given 30 minutes after or an hour after the ischemia had been induced) is “prevented damages of the hippocampal CAl neurons”. In addition, in series [3] (setting [10]), the Incidence Frequency of Neuronal Damage - was found to be 25%, the Incidence Frequency of Neuronal Damage + was 37.5%, the Incidence Frequency of Neuronal Damage ++ came to 12.5% and the Incidence Frequency of Neuronal Damage +++ was determined as 25%. In addition, in series [3] (setting [11]), the Incidence Frequency of Neuronal Damage - worked out at 0%, the Incidence Frequency of Neuronal Damage + was 50%, the Incidence Frequency of Neuronal Damage ++ was 25% and the Incidence Frequency of Neuronal Damage +++ was 25%. In series [3] (setting [12]), the Incidence Frequency of Neuronal Damage - amounted to 0%, the Incidence Frequency of Neuronal Damage + turned out to be 75%, the Incidence Frequency of Neuronal Damage ++ was 0% and the Incidence Frequency of Neuronal Damage +++ stood at 25%.
Turning to `CCCCCCCCCCCC[N+](C)(C)Cc1ccc(-c2cc(-c3ccccn3)nc(-c3ccccn3)c2)cc1` [Compound 24, N-Dodecyl-N,N-dimethyl-N-[4-(2,2':6',2''-terpyridin-4'-yl)phenylmethyl]ammonium bromide], in series [1] (setting [4]), the viability at 2 µg/mL is 200%. Also, in series [1] (setting [5]), the viability at 2 µg/mL was 190%. For the same compound, in series [2] (Mus musculus, 24 h), the fold induction at 2 µg/mL came out at 2.1 and the fold induction at 50 µg/mL was 1.
Turning to `Cc1ccccc1-c1cc(-c2ccccn2)nc(-c2ccccn2)c1` [Compound 3, 4'-(2-Methylphenyl)-2,2':6',2''-terpyridine], the viability at 2 µg/mL in series [1] (setting [4]) was 240%; in series [1] (setting [5]), 280%. Further, the viability at 10 µg/mL in series [1] (setting [4]) is 150%; in series [1] (setting [5]), 140%. The fold induction at 2 µg/mL in series [2] (setting [13]) is 1.5. The fold induction at 10 µg/mL in series [2] (setting [6]) was 2.9.
`Nc1cccc(-c2cc(-c3ccccn3)nc(-c3ccccn3)c2)c1` [Compound 18, 4'-(3-Aminophenyl)-2,2':6',2''-terpyridine]: the values for the viability at 2 µg/mL in series [1] (setting [4]) and in series [1] (setting [5]) were 110% and 140%, respectively. For the same compound, the fold induction at 10 µg/mL in series [2] (setting [6]) is 5.7. Further, in series [2] (setting [6]), the fold induction at 30 µg/mL turned out to be 2. Further, in series [2] (setting [7]), the fold induction at 100 µg/mL amounted to 4.6.
On to `c1ccc(-c2cc(-c3ccncc3)cc(-c3ccccn3)n2)nc1` [Compound 30, 4'-(4-Pyridyl)-2,2':6',2''-terpyridine], for which, in series [1] (setting [4]), the viability at 2 µg/mL is 420% and the viability at 10 µg/mL is 120%. Further, in series [1] (setting [5]), the viability at 2 µg/mL came to 530% and the viability at 10 µg/mL was determined as 130%. The fold induction at 2 µg/mL in series [2] (setting [13]) turned out to be 1. Besides, in series [2] (setting [6]), the fold induction at 10 µg/mL stood at 1.2. For the same compound, the fold induction at 50 µg/mL in series [2] (Mus musculus, 24 h, 50 µg/ml, ratio to DMSO control = 1.0, 24 hours) came out at 1.2. In addition, in series [3] (setting [9]), the Incidence Frequency of Neuronal Damage - amounted to 100%, the Incidence Frequency of Neuronal Damage + is 0%, the Incidence Frequency of Neuronal Damage ++ came to 0% and the Incidence Frequency of Neuronal Damage +++ came to 0%.
